Data reported in ChEMBL document CHEMBL1145498, “A systematic interaction map of validated kinase inhibitors with Ser/Thr kinases” (Proc Natl Acad Sci U S A, 2007).

Key:
[1] = target: Calcium/calmodulin-dependent protein kinase type II subunit delta (Homo sapiens) (UniProt Q13557)
[2] = target: Calcium/calmodulin-dependent protein kinase kinase 2 (Homo sapiens, UniProt Q96RR4)
[3] = target: Dual specificity protein kinase CLK2 (Homo sapiens) (UniProt P49760)
[4] = target: Casein kinase I isoform gamma-3 (Homo sapiens) (UniProt Q9Y6M4)
[5] = target: T1, Myotonin-protein kinase (Homo sapiens) (UniProt Q09013)
T1 sequence (whole entry): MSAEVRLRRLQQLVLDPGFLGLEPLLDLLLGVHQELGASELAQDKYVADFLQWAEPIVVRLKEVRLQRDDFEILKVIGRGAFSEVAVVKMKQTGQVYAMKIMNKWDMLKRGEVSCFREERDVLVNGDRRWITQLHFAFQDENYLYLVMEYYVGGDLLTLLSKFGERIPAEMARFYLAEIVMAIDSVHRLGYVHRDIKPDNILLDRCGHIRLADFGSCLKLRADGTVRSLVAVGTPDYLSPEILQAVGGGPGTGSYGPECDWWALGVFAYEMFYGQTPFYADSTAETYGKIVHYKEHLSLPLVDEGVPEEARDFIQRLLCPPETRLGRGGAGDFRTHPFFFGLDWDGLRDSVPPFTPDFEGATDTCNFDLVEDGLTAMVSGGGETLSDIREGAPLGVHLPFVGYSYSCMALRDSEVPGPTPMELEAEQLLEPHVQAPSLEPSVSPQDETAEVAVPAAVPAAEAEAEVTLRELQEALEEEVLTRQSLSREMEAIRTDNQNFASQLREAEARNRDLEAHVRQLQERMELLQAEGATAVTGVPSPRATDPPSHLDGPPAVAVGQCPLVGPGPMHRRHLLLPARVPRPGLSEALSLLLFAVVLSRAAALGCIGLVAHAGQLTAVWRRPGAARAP

[6] = target: Glycogen synthase kinase-3 beta (Homo sapiens, UniProt P49841)
[7] = target: Mitogen-activated protein kinase 11 (Homo sapiens, UniProt Q15759)
[8] = target: Serine/threonine-protein kinase PAK 4 (Homo sapiens) (UniProt O96013)
[9] = target: Serine/threonine-protein kinase PAK 5 (Homo sapiens) (UniProt Q9P286)
[10] = target: Cyclin-dependent kinase 16 (Homo sapiens) (UniProt Q00536)
[11] = target: Serine/threonine-protein kinase pim-2 (Homo sapiens, UniProt Q9P1W9)
[12] = target: Serine/threonine-protein kinase PLK1 (Homo sapiens) (UniProt P53350)
[13] = target: cAMP-dependent protein kinase catalytic subunit alpha (Homo sapiens) (UniProt P17612)
[14] = target: T2, Serine/threonine-protein kinase 4 (Homo sapiens) (UniProt Q13043)
T2 sequence (whole entry): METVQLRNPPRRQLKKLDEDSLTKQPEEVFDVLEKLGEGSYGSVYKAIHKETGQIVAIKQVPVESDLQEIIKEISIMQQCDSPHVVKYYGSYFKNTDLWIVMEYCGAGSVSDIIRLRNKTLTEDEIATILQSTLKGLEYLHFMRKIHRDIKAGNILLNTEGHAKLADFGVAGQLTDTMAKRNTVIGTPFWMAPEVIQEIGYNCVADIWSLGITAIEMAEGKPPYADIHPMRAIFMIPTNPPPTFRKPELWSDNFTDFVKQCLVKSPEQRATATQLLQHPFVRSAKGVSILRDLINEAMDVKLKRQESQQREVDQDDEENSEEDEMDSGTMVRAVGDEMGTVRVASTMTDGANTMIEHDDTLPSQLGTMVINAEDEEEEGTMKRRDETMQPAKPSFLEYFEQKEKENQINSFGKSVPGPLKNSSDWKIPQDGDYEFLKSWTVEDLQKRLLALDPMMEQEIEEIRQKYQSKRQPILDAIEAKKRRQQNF

[15] = target: TRAF2 and NCK-interacting protein kinase (Homo sapiens) (UniProt Q9UKE5)
[16] = target: T3, Serine/threonine-protein kinase VRK1 (Homo sapiens) (UniProt Q99986)
T3 sequence (whole entry): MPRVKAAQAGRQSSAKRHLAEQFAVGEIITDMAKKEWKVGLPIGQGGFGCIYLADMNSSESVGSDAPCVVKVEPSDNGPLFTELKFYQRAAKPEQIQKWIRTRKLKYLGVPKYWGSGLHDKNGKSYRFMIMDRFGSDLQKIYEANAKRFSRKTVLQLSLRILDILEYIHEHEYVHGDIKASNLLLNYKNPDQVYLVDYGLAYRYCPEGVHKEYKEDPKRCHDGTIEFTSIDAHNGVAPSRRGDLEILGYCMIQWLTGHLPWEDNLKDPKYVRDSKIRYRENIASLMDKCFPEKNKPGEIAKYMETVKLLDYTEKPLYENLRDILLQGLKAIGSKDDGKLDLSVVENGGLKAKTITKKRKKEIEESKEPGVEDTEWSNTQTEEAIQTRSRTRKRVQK

[17] = target: Serine/threonine-protein kinase VRK2 (Homo sapiens) (UniProt Q86Y07)
[18] = target: T4, Serine/threonine-protein kinase VRK3 (Homo sapiens) (UniProt Q8IV63)
T4 sequence (whole entry): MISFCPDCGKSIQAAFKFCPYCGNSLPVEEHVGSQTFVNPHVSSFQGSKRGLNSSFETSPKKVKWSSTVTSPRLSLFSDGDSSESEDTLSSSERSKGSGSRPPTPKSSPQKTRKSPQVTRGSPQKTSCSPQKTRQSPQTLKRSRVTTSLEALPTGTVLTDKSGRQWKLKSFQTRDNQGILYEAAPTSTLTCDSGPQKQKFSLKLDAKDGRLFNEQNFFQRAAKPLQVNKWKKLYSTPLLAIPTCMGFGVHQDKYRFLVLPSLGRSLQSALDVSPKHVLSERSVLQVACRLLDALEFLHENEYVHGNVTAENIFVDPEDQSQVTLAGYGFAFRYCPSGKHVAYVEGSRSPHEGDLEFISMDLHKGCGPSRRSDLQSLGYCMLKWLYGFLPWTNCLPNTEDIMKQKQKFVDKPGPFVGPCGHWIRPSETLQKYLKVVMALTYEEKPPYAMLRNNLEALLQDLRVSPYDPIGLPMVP

Sequence of Casein kinase I isoform gamma-3 (Homo sapiens) (Q9Y6M4 whole entry, looked up, canonical isoform): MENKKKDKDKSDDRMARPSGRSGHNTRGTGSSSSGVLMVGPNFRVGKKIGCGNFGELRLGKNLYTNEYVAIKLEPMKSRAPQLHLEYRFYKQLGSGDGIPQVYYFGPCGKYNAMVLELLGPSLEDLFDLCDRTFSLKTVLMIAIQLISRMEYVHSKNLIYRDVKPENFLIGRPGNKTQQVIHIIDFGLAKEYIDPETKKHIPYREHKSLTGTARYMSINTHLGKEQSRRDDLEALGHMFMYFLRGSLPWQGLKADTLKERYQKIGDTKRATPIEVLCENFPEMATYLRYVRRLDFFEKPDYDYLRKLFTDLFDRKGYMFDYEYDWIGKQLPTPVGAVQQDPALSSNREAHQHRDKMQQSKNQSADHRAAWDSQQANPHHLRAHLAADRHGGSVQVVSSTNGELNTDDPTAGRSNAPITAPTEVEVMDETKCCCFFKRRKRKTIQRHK
Sequence of Glycogen synthase kinase-3 beta (P49841 whole entry, looked up): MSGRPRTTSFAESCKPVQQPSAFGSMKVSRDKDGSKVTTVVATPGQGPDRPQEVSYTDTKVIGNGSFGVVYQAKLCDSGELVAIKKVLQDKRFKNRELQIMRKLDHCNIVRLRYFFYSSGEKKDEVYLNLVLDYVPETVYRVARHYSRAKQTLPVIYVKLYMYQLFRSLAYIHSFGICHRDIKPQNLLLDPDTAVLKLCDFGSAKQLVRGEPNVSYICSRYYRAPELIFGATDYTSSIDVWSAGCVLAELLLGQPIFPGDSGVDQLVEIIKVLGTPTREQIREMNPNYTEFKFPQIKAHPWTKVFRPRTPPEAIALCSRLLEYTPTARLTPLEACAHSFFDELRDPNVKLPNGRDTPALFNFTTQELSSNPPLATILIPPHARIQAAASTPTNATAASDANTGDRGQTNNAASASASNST
Sequence of Calcium/calmodulin-dependent protein kinase type II subunit delta (Homo sapiens) (Q13557 whole entry): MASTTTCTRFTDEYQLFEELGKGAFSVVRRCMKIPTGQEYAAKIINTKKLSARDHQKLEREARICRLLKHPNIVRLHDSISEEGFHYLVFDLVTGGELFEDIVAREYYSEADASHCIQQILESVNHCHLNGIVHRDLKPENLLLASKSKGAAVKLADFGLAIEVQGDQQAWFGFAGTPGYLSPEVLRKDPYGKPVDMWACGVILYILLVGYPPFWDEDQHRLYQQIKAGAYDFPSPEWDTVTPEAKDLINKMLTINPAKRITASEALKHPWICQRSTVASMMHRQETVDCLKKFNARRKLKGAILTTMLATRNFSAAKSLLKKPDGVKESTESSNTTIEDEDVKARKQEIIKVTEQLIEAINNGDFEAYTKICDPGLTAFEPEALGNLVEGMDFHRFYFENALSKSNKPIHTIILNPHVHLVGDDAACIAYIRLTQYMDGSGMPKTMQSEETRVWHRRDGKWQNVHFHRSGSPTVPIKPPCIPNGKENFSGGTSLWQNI
Sequence of Serine/threonine-protein kinase VRK2 (Homo sapiens) (Q86Y07 whole entry): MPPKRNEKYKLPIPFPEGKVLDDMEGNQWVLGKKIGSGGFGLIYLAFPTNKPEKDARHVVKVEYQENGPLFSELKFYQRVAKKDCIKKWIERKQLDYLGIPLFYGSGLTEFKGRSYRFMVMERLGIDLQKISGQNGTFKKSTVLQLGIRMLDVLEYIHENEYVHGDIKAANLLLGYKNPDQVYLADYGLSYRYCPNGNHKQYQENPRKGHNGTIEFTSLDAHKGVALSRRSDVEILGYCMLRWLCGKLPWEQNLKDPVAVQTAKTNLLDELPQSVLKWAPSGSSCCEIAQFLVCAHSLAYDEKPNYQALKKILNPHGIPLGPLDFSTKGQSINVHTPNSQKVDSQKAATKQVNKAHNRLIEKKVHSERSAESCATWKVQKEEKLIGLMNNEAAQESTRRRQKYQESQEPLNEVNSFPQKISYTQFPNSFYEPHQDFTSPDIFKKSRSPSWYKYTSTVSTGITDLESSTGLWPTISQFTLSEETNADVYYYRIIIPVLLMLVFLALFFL
Sequence of Serine/threonine-protein kinase PAK 5 (Homo sapiens) (Q9P286 whole entry, looked up): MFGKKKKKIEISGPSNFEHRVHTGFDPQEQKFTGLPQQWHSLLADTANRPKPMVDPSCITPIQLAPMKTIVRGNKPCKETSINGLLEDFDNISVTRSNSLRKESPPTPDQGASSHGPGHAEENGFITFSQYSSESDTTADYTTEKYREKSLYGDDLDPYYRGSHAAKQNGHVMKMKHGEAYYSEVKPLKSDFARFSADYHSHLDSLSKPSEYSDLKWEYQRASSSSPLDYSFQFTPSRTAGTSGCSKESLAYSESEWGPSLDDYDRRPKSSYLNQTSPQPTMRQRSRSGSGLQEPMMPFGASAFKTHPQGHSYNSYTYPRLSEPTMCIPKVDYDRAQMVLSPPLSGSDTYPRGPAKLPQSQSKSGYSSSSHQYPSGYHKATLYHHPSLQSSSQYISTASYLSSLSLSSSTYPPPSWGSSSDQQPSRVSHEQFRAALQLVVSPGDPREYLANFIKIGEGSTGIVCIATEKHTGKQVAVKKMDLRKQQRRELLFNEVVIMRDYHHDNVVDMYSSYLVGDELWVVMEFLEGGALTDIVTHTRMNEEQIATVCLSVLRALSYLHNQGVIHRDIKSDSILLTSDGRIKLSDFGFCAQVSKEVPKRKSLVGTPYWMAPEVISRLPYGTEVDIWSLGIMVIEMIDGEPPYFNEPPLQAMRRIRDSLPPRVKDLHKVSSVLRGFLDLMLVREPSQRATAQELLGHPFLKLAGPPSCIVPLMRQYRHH
Sequence of Dual specificity protein kinase CLK2 (Homo sapiens) (P49760 whole entry, looked up, canonical isoform): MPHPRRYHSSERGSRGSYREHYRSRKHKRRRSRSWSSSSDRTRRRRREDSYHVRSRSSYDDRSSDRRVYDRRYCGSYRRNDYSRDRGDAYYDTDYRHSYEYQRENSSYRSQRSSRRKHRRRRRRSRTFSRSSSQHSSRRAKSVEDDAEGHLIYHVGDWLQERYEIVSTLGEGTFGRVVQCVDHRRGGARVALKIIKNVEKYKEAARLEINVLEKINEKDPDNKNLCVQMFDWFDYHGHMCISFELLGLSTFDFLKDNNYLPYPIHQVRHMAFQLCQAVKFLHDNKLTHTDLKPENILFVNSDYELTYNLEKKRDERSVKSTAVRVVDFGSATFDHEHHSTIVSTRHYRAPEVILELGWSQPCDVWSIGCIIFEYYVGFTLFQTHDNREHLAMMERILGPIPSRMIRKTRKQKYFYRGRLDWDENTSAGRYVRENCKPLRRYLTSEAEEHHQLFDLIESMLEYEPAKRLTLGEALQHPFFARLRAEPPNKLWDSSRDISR
Sequence of Mitogen-activated protein kinase 11 (Q15759 whole entry): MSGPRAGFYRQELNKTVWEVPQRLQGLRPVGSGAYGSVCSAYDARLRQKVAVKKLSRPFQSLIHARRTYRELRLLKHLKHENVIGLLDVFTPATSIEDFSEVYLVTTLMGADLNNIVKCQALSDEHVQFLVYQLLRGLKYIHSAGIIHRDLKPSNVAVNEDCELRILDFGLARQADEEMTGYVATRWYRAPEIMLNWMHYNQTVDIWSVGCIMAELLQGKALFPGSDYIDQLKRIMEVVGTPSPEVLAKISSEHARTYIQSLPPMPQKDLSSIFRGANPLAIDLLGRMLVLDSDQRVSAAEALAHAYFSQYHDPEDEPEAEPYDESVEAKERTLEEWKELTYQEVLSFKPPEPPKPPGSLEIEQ
Sequence of Calcium/calmodulin-dependent protein kinase kinase 2 (Q96RR4 2-588 limits assumed): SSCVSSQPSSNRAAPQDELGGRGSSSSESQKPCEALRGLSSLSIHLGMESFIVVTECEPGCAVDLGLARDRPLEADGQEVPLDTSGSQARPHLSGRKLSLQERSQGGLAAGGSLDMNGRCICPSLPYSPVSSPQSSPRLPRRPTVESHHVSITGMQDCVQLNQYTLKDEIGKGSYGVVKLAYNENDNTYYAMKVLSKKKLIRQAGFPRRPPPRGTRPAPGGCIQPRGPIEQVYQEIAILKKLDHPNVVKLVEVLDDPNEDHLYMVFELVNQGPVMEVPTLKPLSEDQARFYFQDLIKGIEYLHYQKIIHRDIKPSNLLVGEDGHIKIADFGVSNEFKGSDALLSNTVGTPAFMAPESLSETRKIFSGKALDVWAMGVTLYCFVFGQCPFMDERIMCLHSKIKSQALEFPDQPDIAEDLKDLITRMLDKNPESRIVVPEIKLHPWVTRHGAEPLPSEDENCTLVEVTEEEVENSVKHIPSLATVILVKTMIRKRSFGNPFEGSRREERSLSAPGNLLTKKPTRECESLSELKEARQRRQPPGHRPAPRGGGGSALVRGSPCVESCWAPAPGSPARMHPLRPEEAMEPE
Sequence of Serine/threonine-protein kinase PLK1 (Homo sapiens) (P53350 whole entry): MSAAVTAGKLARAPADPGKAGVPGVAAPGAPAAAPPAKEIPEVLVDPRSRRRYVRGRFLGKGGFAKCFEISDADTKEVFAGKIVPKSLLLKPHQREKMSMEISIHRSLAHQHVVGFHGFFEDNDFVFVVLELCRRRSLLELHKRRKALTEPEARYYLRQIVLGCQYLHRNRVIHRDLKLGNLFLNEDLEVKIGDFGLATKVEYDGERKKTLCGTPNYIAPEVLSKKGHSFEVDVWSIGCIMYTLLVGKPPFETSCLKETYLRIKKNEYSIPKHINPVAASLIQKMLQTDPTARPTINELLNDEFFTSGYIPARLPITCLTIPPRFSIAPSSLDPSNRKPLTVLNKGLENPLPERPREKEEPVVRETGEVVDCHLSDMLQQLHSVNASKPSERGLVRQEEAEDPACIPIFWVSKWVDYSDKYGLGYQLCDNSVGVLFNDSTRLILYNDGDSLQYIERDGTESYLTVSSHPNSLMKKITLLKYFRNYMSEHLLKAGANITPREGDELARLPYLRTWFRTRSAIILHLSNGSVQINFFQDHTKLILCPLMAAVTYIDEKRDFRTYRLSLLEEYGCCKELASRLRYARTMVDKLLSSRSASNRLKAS
Sequence of Serine/threonine-protein kinase pim-2 (Q9P1W9 whole entry, looked up): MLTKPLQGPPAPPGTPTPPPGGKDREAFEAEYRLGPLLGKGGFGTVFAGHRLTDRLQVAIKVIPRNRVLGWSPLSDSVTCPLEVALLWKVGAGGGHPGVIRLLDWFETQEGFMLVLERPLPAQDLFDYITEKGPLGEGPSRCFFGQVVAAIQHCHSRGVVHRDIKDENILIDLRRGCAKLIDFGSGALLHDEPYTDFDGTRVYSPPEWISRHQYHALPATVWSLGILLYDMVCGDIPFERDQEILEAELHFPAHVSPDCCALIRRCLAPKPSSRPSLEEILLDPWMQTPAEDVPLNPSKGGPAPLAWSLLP

Compound	ΔTm [1] [°C]	ΔTm [2] [°C]	ΔTm [3] [°C]	ΔTm [4] [°C]	ΔTm [5] [°C]	ΔTm [6] [°C]	ΔTm [7] [°C]	ΔTm [8] [°C]	ΔTm [9] [°C]	ΔTm [10] [°C]	ΔTm [11] [°C]	ΔTm [12] [°C]	ΔTm [13] [°C]	ΔTm [14] [°C]	ΔTm [15] [°C]	ΔTm [16] [°C]	ΔTm [17] [°C]	ΔTm [18] [°C]
CN(C)c1ncnc2nc[nH]c12 [DIMETHYLADENINE]	-0.2	1	0.9	0.5	0.8	0.7	0.1	0.5	0	-0.3	0.3	0.5	0.7	1.1	0	0	0	-1
CSc1nc(-c2ccc(F)cc2)c(-c2ccnc(NC(C)c3ccccc3)c2)[nH]1 (racemic)	0.9	0.7	0.1	3.4	1.3	0	9.5	0.2	0	0.4	-0.2	0.9	-0.7	1.3	-1.2	0.9	0.2	-0.3
O=C1Nc2ccccc2/C1=C/c1cnc[nH]1	-0.3	3.1	2.5	1.5	0.8	7.1	0.4	2.2	0.7	4.7	1.9	1.3	1.6	8.4	6.1	0.5	2.1	0.1
O=C1Nc2ccc(S(=O)(=O)O)cc2/C1=C1/Nc2ccccc2/C1=N\O	1.2	4.9	3.7	3.7	1.8	8.8	1.4	2.7	2.1	5.9	3.5	1.1	1.2	7.4	2.4	0	4	1.9
Cc1cc(Nc2nc(-c3ccccc3)nc3ccccc23)n[nH]1	0.7	2	2.8	2.8	1.9	8.6	0.1	5.9	5.2	1.4	0.7	10.8	6.4	7.4	-1	0.8	0.4	6.6
O=c1c2ccccc2[nH]c(=S)n1CCN1CCC(=C(c2ccc(F)cc2)c2ccc(F)cc2)CC1 [DIACYLGLYCEROL KINASE INHIBITOR II]	-5.4	1.8	0.3	-1.3	-0.7	1.9	1.2	1.3	-0.2	-0.7	1.4	0.6	0.8	2	0	-0.2	-0.2	-0.6
Cn1cnc2c(NCc3ccccc3)nc(NCCO)nc21 [OLOMOUCINE]	-0.2	-0.2	0.1	0	-0.1	0.1	-0.1	0.4	-0.1	-0.6	0.1	-0.9	-0.1	0.3	0.3	0.4	0.2	0.1
Cc1nc2sccn2c(=O)c1CCN1CCC(=C(c2ccccc2)c2ccc(F)cc2)CC1	-0.4	0.6	2.8	0.3	0.1	2.6	-0.7	0.8	1	-0.5	3.3	0.6	1.6	3.6	2.9	0.3	0.2	0
COc1cc(O)c2c(c1)oc(=O)c1c3cc(O)c(O)cc3oc21 [WEDELOLACTONE]	0.5	2.3	1.2	1.5	2.7	-0.4	1.5	1.6	-0.3	0.1	2.2	1.4	2.3	2.4	1.3	0	1.2	-1
CN(C)S(=O)(=O)c1ccc2c(c1)/C(=C/c1cc3c([nH]1)CCCC3)C(=O)N2	3.2	7.6	4.8	0.6	-0.3	-0.3	1.1	1.3	0.4	0.1	0.4	0.1	2.5	8.7	4.2	0.3	0.4	1.5
O=S(=O)(c1cccc2c(Cl)cccc12)N1CCCNCC1	0.5	-0.8	0.6	0.1	-0.2	0.2	-0.3	0.8	0.1	-0.4	1.7	0	1.4	0.9	0.1	0.3	0	0.1
